Experiment [1] deals with YUMC-S-P1 cells xenograft. Kind of experiment: Human PTC cell xenograft, anti cancer drug-sensitive PTC cells. Type of experiment: in vivo, mice. How it is done:
(§1) All experiments were approved by the Animal Experiment Committee of Yonsei University. YUMC-S-P1, YUMC-P1 and -P2-main or meta patient-derived PTC cells (4.4×10^6 cells/mouse) were cultured in vitro and then injected subcutaneously into the upper left flank region of female NOD/Shi-scid, IL-2Rγ KOJic (NOG) mice. After 15 days, tumor-bearing mice were grouped randomly (n=10 per group) and treated SERCA inhibitors, thapsigargin (25 mg/kg), candidate 33 (12 mg/kg) and 36 (12 mg/kg, p.o.) with 80 mg/kg sorafenib (p.o.) either alone or combination. Tumor size was measured every three day using calipers. Tumor volume was estimated using the following formula: L×S2/2 (L, longest diameter; S, shortest diameter). Animals were maintained under specific pathogen-free conditions. All experiments were approved by the Animal Experiment Committee of Yonsei University.
(§2) We developed mouse xenograft models using anti cancer drug-sensitive (YUMC-S-P1) and metastatic PTC (YUMC-P1 and -P2-meta) cells and evaluated the anticancer effect of monotherapy with sorafenib, lenvatinib or with SERCA inhibitors (thapsigargin, CKP1 and 2) as well as that of the combination therapy between sorafenib or lenvatinib and a SERCA inhibitor. […] No significant changes in resected tumor weight were found between any of the treatment groups (FIG. 5a to 5e).
(In general: A xenograft is tissue or cells of one species grown in another, often human tumour cells in immunodeficient mice.)

Experiment [2] has as its system YUMC-S-P1, YUMC-P1-main, YUMC-P2-main cells. In words: Cell viability assay (MTT), anti-cancer drug-sensitive and main mass PTC cells. In kind it is cell-based, human. As for the experimental part: (§3) Cell viability was measured using the MTT (3-(4,5-Dimethylthiazol-2-yl)-2,5-Diphenyltetrazolium Bromide) assay, cells were seeded in 96-well plates at 7×10^3 cells per well and incubated overnight to achieve 80% confluency. The detailed protocol can be found in our previous article. Data were expressed as a percentage of the signal observed in vehicle-treated cells and are shown as the means±SEM of triplicate experiments.
(§4) To evaluate to the anti-cancer efficacy of CKP1 and 2, combinatorial strategies with sorafenib or lenvatinib, we carried out cell viability assays for anti-cancer drug-sensitive (YUMC-S-P1) and main mass or lymph node metastasis PTC (YUMC-P1-main or YUMC-P2-main or YUMC-P1-meta or YUMC-P2-meta) cells treated with sorafenib or levatinib each agent treated alone or with CKP1 and CKP2.

In experiment [3] the test system is metastatic PTC cells (YUMC-P1 or -P2-meta) xenograft. In words: Human PTC cell xenograft, metastatic PTC cells. Type of experiment: in vivo, mice. The note with it: for tumor shrinkage: YUMC-P1 or -P2-meta xenograft; for tumor shrinkage (summary statement): xenograft tumor model developed using patient-derived antineoplastic-resistant cells. As for the experimental part:
as §1, §2

The subject of experiment [4] is metastatic PTC (YUMC-P1-meta or YUMC-P2-meta) cells. Kind of experiment: Cell viability assay (MTT), metastatic PTC cells. Type of experiment: cell-based, human. How it is done: as §3, §4
[5] abbreviates: sorafenib or lenvatinib without SERCA inhibitors.
[6] abbreviates: sorafenib or lenvatinib without CKP1 and CKP2, dose-dependent, YUMC-S-P1, YUMC-P1-main, YUMC-P2-main.
The mark [7] stands for this setting: sorafenib or lenvatinib treatment alone, YUMC-P1-meta or YUMC-P2-meta.
[8] abbreviates: SERCA inhibitor with sorafenib or lenvatinib.
The mark [9] stands for this setting: SERCA inhibitor alone treatment, whole PTC cells.
Setting [10] is: combination of sorafenib or lenvatinib with SERCA inhibitor.
[11] abbreviates: combinatorial with sorafenib or lenvatinib treatment, dose-dependent, YUMC-P1-meta or YUMC-P2-meta.
Where [12] appears, read: in combination with sorafenib or lenvatinib, dose-dependent, YUMC-S-P1, YUMC-P1-main, YUMC-P2-main.

We go through five compounds from patent publication US20250145573A1, “COMPOSITION FOR PREVENTING, ALLEVIATING OR TREATING CANCER” (CKP Therapeutics, Inc., priority 2023, published 2025).

On to `COc1cc2nccc(Oc3ccc(NC(=O)NC4CC4)c(Cl)c3)c2cc1C(N)=O` [lenvatinib, reference compound], for which the tumor size entry in experiment [1] (setting [5]) is reported as “decreased significantly tumor size”. The figures for the cell viability entry in experiment [2] (setting [6]) and in experiment [4] (setting [7]) were “significantly decreased” and “no remarkably influenced”, respectively. For the same compound, the tumor shrinkage result in experiment [3] (monotherapy) is listed as “did not induce significant tumor shrinkage”.
Taken in the same sequence, the figures for `CNC(=O)c1cc(Oc2ccc(NC(=O)Nc3ccc(Cl)c(C(F)(F)F)c3)cc2)ccn1` [sorafenib, reference compound] were “decreased significantly tumor size”, “significantly decreased”, “no remarkably influenced” and “did not induce significant tumor shrinkage”.
In the case of `C/C=C(/C)C(=O)O[C@H]1C(C)=C2[C@H]([C@@H]1OC(=O)CCCCCCC)[C@@](C)(OC(C)=O)C[C@H](OC(=O)CCC)[C@@]1(O)[C@H]2OC(=O)[C@@]1(C)O` [thapsigargin, reference compound], the tumor size result in experiment [1] (setting [8]) was “decreased significantly tumor size”. The cell viability entry in experiment [2] (setting [9]) was “did not critical influence”; in experiment [4] (setting [9]) it was “did not critical influence”; in experiment [4] (setting [11]), “remarkably restrained the viability”. The tumor shrinkage entry in experiment [3] (setting [10]) is on record as “substantial tumor shrinkage”.
On to `Cc1cc(N=Cc2ccc(Cl)cc2)c2cccc(C)c2n1` [CKP2], for which the tumor size result in experiment [1] (setting [8]) is “decreased significantly tumor size”. In addition, the cell viability entry in experiment [2] (setting [9]) is recorded as “did not critical influence”; in experiment [2] (setting [12]), “significantly decreased”; in experiment [4] (setting [9]), “did not critical influence”; in experiment [4] (setting [11]), “remarkably restrained the viability”. Also, the tumor shrinkage result in experiment [3] (setting [10]) is listed as “substantial tumor shrinkage”. The “tumor shrinkage (summary statement)” value in experiment [3] is recorded as “significant tumor shrinkage”.
As to `Cc1cc(C=Nc2ccc(Cl)cc2)c2cccc(C)c2n1` [CKP1], in experiment [1] (setting [8]), the tumor size entry is on record as “decreased significantly tumor size”. Besides, the cell viability result in experiment [2] (setting [9]) is reported as “did not critical influence”; in experiment [2] (setting [12]), “significantly decreased”; in experiment [4] (setting [9]), “did not critical influence”; in experiment [4] (setting [11]) it was “remarkably restrained the viability”. Also, the tumor shrinkage result in experiment [3] (setting [10]) is “substantial tumor shrinkage”. Further, the “tumor shrinkage (summary statement)” value in experiment [3] is “significant tumor shrinkage”.
